# Patent US20100120700A1, “METHODS AND COMPOSITIONS FOR TREATING CERVICAL CANCER” (priority 2000, published 2010)
# Several values for one entry are separate records, joined by “and”; a condition that tells them apart may be missing. Equal values may be shown once.
# Columns and labels:
# Experiment in all cases: G assay PDZ-PL binding
# DLG1 domain 1 = target: T1, DLG1 domain 1 (Homo sapiens, UniProt Q12959, R278Q); details: vs GST only well, peptide 10 uM, protein 5
# T1 construct: made in house; host or cells: E. coli (DH5alpha, BL21 or JM109)
# Method in brief: (§1)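 Plate ELISA: anti-GST antibody coat, BSA block, then GST/PDZ fusion (GST alone as negative control). Biotinylated PL peptide 20 uM (10 uM in G′ variant) added, 10 min 4 °C plus 20 min 25 °C; streptavidin-HRP, TMB, absorbance 450 nm.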
# DLG2 #162.1 domain 2 = target: T2, DLG2 #162.1 domain 2 (Homo sapiens, UniProt Q15700, K278N); details: peptide 10 uM, protein 5
# T2 construct: made in house; host or cells: E. coli (DH5alpha, BL21 or JM109), vector pGEX-3X
# T2 sequence (Q15700 whole entry, looked up, the tested form differs by isoform, tags, fused parts or gaps, stated change not applied): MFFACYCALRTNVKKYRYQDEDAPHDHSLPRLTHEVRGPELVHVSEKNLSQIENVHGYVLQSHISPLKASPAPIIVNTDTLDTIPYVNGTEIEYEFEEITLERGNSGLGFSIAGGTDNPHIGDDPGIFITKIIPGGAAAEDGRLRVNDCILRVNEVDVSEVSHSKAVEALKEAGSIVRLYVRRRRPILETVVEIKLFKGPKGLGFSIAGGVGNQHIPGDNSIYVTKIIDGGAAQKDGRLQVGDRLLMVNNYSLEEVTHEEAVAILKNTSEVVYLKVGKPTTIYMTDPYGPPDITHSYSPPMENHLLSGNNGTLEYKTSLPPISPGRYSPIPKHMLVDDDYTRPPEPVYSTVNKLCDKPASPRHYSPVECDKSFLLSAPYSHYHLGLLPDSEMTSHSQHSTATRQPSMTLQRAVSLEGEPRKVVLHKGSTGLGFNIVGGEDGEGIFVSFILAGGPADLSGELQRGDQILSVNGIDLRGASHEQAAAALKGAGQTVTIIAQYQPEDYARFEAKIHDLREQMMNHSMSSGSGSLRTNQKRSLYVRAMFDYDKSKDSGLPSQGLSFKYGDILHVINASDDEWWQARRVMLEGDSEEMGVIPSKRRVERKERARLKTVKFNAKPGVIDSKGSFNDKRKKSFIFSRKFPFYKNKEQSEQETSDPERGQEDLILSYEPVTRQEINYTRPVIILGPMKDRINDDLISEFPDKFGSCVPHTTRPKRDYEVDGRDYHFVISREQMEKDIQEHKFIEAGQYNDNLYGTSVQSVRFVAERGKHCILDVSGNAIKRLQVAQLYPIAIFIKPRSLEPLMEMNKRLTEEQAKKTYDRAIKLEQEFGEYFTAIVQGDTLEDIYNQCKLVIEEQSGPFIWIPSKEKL
# Method in brief: as §1
# EBP50 #167.2 domain 1 = target: T3, EBP50 #167.2 domain 1 (Homo sapiens, UniProt O14745); details: peptide 10 uM, protein 5
# T3 construct: made in house; host or cells: E. coli (DH5alpha or BL-21)
# T3 sequence (O14745 with tags, fused parts or gaps): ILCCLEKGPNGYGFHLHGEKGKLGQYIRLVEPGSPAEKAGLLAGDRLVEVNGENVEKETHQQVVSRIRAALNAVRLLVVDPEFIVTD
# Method in brief: as §1
# ELFIN 1 domain 1 = target: T4, ELFIN 1 domain 1 (Homo sapiens, UniProt O00151, G21R); details: peptide 10 uM, protein 5
# T4 construct: made in house; host or cells: E. coli (DH5alpha, BL21 or JM109), vector pGEX-3X
# T4 sequence (O00151 2-93 G21R): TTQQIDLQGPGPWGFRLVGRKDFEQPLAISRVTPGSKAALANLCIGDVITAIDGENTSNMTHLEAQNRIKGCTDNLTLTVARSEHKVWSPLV
# Method in brief: as §1
# KIAA1526 #119.1 domain 1 = target: T5, KIAA1526 #119.1 domain 1 (Homo sapiens, UniProt Q9P202); details: peptide 10 uM, protein 5
# T5 construct: made in house; host or cells: E. coli (DH5alpha or BL-21)
# T5 sequence (Q9P202 130-232): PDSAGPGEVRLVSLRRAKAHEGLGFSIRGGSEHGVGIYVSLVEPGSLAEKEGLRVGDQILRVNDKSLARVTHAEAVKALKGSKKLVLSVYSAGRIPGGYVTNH
# Method in brief: as §1
# KIAA1634 domain 5 = target: T6, KIAA1634 domain 5 (Homo sapiens, UniProt Q5TCQ9); details: peptide 10 uM, protein 5
# T6 construct: made in house; host or cells: E. coli (DH5alpha or BL-21)
# T6 sequence (Q5TCQ9 1040-1137 isoform Q5TCQ9-2): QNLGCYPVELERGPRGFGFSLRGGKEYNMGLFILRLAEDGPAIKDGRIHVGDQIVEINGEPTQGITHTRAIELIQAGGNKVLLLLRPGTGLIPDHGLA
# Method in brief: as §1
# LIM-RIL domain 1 = target: T7, LIM-RIL domain 1 (Homo sapiens, UniProt P50479, A39S/DEL20-20); details: peptide 10 uM, protein 5
# T7 construct: made in house; host or cells: E. coli (DH5alpha or BL-21)
# T7 sequence (P50479 with tags, fused parts or gaps DEL20-20/A39S): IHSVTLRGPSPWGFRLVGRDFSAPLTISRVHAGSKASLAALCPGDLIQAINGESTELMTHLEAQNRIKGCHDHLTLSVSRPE
# Method in brief: as §1
# MAGI 1 domain 3 = target: T8, MAGI 1 domain 3 (Homo sapiens, UniProt Q96QZ7); details: peptide 10 uM, protein 5
# T8 construct: made in house; host or cells: E. coli (DH5alpha, BL21 or JM109)
# T8 sequence (Q96QZ7 with tags, fused parts or gaps): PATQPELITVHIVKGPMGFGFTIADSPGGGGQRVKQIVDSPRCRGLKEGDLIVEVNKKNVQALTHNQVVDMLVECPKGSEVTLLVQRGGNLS
# Method in brief: as §1
# MUPP1 domain 13 = target: T9, MUPP1 domain 13 (Homo sapiens, UniProt O75970); details: peptide 10 uM, protein 5
# T9 construct: made in house; host or cells: E. coli (DH5alpha or BL-21)
# T9 sequence (O75970 1980-2070): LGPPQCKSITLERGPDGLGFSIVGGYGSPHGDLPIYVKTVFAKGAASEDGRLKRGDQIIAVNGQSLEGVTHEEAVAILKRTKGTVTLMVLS
# Method in brief: as §1
# PIST domain 1 = target: T10, PIST domain 1 (Homo sapiens, UniProt Q9HD26); details: peptide 10 uM, protein 5
# T10 construct: made in house; host or cells: E. coli (DH5alpha or BL-21)
# Method in brief: as §1
# TIAM 2 domain 1 = target: T11, TIAM 2 domain 1 (Homo sapiens, UniProt Q8IVF5); details: peptide 10 uM, protein 5
# T11 construct: made in house; host or cells: E. coli (DH5alpha, BL21 or JM109)
# T11 sequence (Q8IVF5 885-981): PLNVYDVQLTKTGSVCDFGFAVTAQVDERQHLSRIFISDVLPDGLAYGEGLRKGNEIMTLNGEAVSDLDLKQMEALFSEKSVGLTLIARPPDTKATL
# Method in brief: as §1
# TIP1 domain 1 = target: T12, TIP1 domain 1 (Homo sapiens, UniProt O14907); details: vs GST only well, peptide 10 uM, protein 5
# T12 construct: made in house; host or cells: E. coli (DH5alpha, BL21 or JM109)
# T12 sequence (O14907 14-116): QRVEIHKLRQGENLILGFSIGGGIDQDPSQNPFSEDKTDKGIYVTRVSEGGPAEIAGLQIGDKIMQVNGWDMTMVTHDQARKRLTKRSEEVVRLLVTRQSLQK
# Method in brief: as §1
# X-11 beta domain 2 = target: T13, X-11 beta domain 2 (Homo sapiens, UniProt Q99767); details: peptide 10 uM, protein 5
# T13 construct: made in house; host or cells: E. coli (DH5alpha or BL-21)
# T13 sequence (Q99767 with tags, fused parts or gaps): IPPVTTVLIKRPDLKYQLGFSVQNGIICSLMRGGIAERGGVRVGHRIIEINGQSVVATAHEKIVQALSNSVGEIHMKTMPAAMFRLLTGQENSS
# Method in brief: as §1
# ZO-1 domain 2 = target: T14, ZO-1 domain 2 (Homo sapiens, UniProt Q07157, DEL264-264); details: peptide 10 uM, protein 5
# T14 construct: made in house; host or cells: E. coli (DH5alpha, BL21 or JM109)
# T14 sequence (Q07157 with tags, fused parts or gaps DEL264-264): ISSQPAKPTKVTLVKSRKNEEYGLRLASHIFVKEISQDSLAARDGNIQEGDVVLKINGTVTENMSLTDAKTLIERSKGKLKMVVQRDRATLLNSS
# Method in brief: as §1
substance,measurement,setting,value
"20 mer peptide corresponding to the C-terminus of HPV16 E6 (PDZ ligand), biotinylated in binding assays; ends SSRTRRETQL (SEQ ID NO: 13) [HPV E6 #16]",OD S/N,DLG1 domain 1,2.98 and 4.18
same,Ave OD,DLG2 #162.1 domain 2; A450 nm,0.908 and 0.853
same,OD S/N,DLG2 #162.1 domain 2; vs GST only well,3.87 and 3.05
same,Ave OD,EBP50 #167.2 domain 1; A450 nm,0.3805 and 0.3555
same,OD S/N,EBP50 #167.2 domain 1; vs GST only well,1.94 and 2.28
same,Ave OD,ELFIN 1 domain 1; A450 nm,0.66
same,OD S/N,ELFIN 1 domain 1; vs GST only well,3.39
same,Ave OD,KIAA1526 #119.1 domain 1; A450 nm,0.425
same,OD S/N,KIAA1526 #119.1 domain 1; vs GST only well,1.38
same,Ave OD,KIAA1634 domain 5; A450 nm,0.4025
same,OD S/N,KIAA1634 domain 5; vs GST only well,2.07
same,Ave OD,LIM-RIL domain 1; A450 nm,0.449
same,OD S/N,LIM-RIL domain 1; vs GST only well,1.60
same,Ave OD,MAGI 1 domain 3; A450 nm,0.354
same,OD S/N,MAGI 1 domain 3; vs GST only well,1.46
same,Ave OD,MUPP1 domain 13; A450 nm,0.4355 and 0.4115
same,OD S/N,MUPP1 domain 13; vs GST only well,1.56 and 1.75
same,Ave OD,PIST domain 1; A450 nm,0.3855
same,OD S/N,PIST domain 1; vs GST only well,1.96
same,Ave OD,TIAM 2 domain 1; A450 nm,0.356
same,OD S/N,TIAM 2 domain 1; vs GST only well,2.05
same,OD S/N,TIP1 domain 1,8.24 and 5.67
same,Ave OD,X-11 beta domain 2; A450 nm,0.4315 and 0.4265
same,OD S/N,X-11 beta domain 2; vs GST only well,2.95 and 1.78
same,Ave OD,ZO-1 domain 2; A450 nm,0.518
same,OD S/N,ZO-1 domain 2; vs GST only well,3.02
